Consider 14 compounds from patent US12297203B2, “Pyrrolopyrimidine ITK inhibitors” (ACLARIS THERAPEUTICS, INC., priority 2018, dated 2025).

Read-outs that look alike come from different tables or passages of the source.

The term IC50 denotes the midpoint of a concentration-inhibition curve.

The target in one test is ITK (Homo sapiens (Human), UniProt Q08881). Nature of the test: ITK inhibitor binding potency (LanthaScreen competitive binding assay). Particulars: read-out: ITK Inh. IC50. The text has this:
The ability of candidate compounds to interact with ITK is quantitated by a competitive binding assay using the LanthaScreen technology developed by Life Technologies. This assay is based on the binding of a proprietary, Alexa Fluor® 647-labeled, ATP-competitive kinase inhibitor (kinase tracer-236) to the ITK expression construct in the presence of a Europium-conjugated antibody, resulting in a FRET (fluorescence resonance energy transfer) signal. Displacement of the kinase tracer by compound results in a lower emission ratio upon excitation of the Europium chelate. Candidate compounds are designed as potential irreversible inhibitors of ITK, capable of ligating to an active site cysteine residue resulting in time dependent covalent binding. The time dependent nature of irreversible inhibition is investigated by performing the binding assay with and without a pre-incubation of compound and ITK. […] The inhibitory potency of candidate compounds is measured in 20 mM HEPES pH 7.5, 10 mM MgCl2, 0.01% BSA, 0.0005% Tween-20, and 2% DMSO in the presence of 10 nM ITK, 2 nM Eu-anti-GST antibody, and 50 nM kinase tracer-236 using a 384-well plate format. Background signal is defined in the absence of ITK and uninhibited signal is defined in the presence of vehicle (2% DMSO) alone. Compounds were evaluated in an 11 point dose-response ranging from 20 uM to 0.34 nM. The binding assays are performed under two preincubation conditions to evaluate time dependence of inhibition. For the pre-incubation assay, ITK and Eu-anti-GST antibody are pre-incubated with compound or vehicle for two hours prior to the addition of kinase tracer. The non-preincubated assay is run under conditions where ITK and Eu-anti-GST antibody are added to a mixture of compound and kinase tracer. IC50 values of compounds are determined using a 4 parameter logistical fit of emission ratio as a function of the concentration of compound.
A general note: Time-resolved FRET reads energy transfer from a long-lived donor to a nearby acceptor.

The target of another test is JAK3 (Homo sapiens (Human), UniProt P52333). Description: JAK3 enzyme activity assay (Caliper mobility shift). Particulars: ATP at Km level; read-out: JAK3 Inh. IC50. In kind it is biochemical. From the text: The ability of candidate compounds to interact with JAK3 is quantitated by a mobility shift assay using an LC3000 instrument developed by Caliper Life Sciences. This assay is based on mobility shift electrophoresis, in which fluorescently labelled product and fluorescently labelled substrate peaks are separated and detected independently. JAK3 product/substrate separation is obtained using the following instrument settings: Pressure=−1.4 psi, Downstream voltage=−2550V and Upstream voltage=−800V. The inhibitory potency of candidate compounds of JAK3 is measured in 20 mM HEPES pH 7.5, 10 mM MgCl2, 0.01% BSA, 0.0005% Tween-20, and 2% DMSO in the presence of 2.5 nM JAK3 (Life Technologies Catalog #PV3855), […] (Anaspec Catalog #AS-64106) and […] (Km level) using a 384-well plate format. Background signal is defined in the absence of enzyme and uninhibited signal is defined in the presence of vehicle (2% DMSO) alone. Compounds were evaluated in an 11 point dose-response ranging from […] to 0.34 nM. IC50 values of compounds are determined using a 4 parameter logistical fit of emission ratio as a function of the concentration of compound.

Test [1] deals with ITK phosphorylation of its substrate, PLCγ1, at Y783. Nature of the test: ITK target modulation assay (PLCγ1 Y783 phosphorylation, anti-CD3 stimulated Jurkat T cells). The class given is cell-based. Particulars: anti-CD3 Dynabeads stimulation, read-out: PLC-γ Inh. IC50. The method, then: Target modulation was based upon the ability of a compound to inhibit ITK phosphorylation of its substrate, PLCγ1, at Y783. Human Jurkat T cells (ATCC TIB-152) were plated in V-bottom 96 well plates at 400,000 cells/well in 80 μL medium (RPMI1640 with 10% heat inactivated serum and 55 μM 2-mercaptoethanol and supplemented with glutamine/penicillin/streptomycin). Compounds were added as 10 μL of 10× working stock solutions in medium with 1% DMSO (or medium with 1% DMSO for controls) and placed in a 37° C. incubator with gentle shaking for 1 hour. Stimulation was carried out using anti-CD3 Dynabeads (Invitrogen catalog #1151D) to activate the T cell receptor and mimic antigen presenting cells. Beads were washed and resuspended in medium at 1.84×10^8 beads/ml. Beads were added rapidly to all compound containing and stimulation only wells at 10 μL/well (bead:cell=2:1) with gentle mixing of the bead source between each addition. Wells designated ‘unstimulated’ received 10 μL of media only. The plate was immediately sealed with a plate seal and cells pelleted at 400× g for 4 minutes. Media was removed using a multichannel aspirator, 25 μL of cold hypotonic lysis buffer (VWR M334-100 ml) plus 1×HALT Protease Inhibitor Cocktail (ThermoFisher #78437), 1× Phosphatase Inhibitor Cocktail 2 (Sigma Aldrich #P5726), 1× Phosphatase Inhibitor Cocktail 3 (Sigma Aldrich #P0044) and 2 mM PMSF was added per well. Cells were incubated on ice for 30 minutes to swell the cells then lysed by pipetting 20 times using a multichannel pipet. The plates were then resealed and centrifuged for 5 minutes at 400× g to pellet the cellular debris. Two μL of the soluble component of each sample was spotted onto nitrocellulose and allowed to dry for 30 minutes. Nitrocellulose was wet in 1× Tris Buffer Saline (20 mM Tris pH7.5, 150 mM NaCl) then blocked in LiCOR Odyssey Blocking Buffer (TBS) (LiCOR #927-50000) for 1 hour at room temperature with rocking. Following blocking, nitrocellulose was incubated in LiCOR Odyssey Blocking Buffer (TBS) plus 0.2% Tween20 plus anti-phospho-PLCγ1 (Y783) antibody (CST #2821S) at 1:1000 and anti-PLCγ1 (Abcam #41433) at 1:5000 with gentle rocking overnight at 4° C. Nitrocellulose was then washed four times for 5 minutes each with TBS plus 0.1% Tween20 (TBST) then incubated in LiCOR Odyssey Blocking Buffer (TBS) plus 0.2% Tween20 plus secondary antibodies IRDye 800CW (LiCOR 926-32211) and IRDye 680RD (LiCOR 926-68070) both at 1:15,000 with gentle rocking at room temperature in the dark for 1 hour. Nitrocellulose was then washed four times for 5 minutes each with TBST at room temperature in the dark. A final rinse with TBS was done prior to imaging and quantifying using the LiCOR Odyssey Imager and software respectively.

Test [2] deals with JAK1/3 phosphorylation of its substrate, STAT5, at Y694. Nature of the test: JAK1/3 target modulation assay (IL-2 stimulated STAT5 Y694 phosphorylation in PBMC). In kind it is cell-based. Particulars: Primary human peripheral blood mononuclear cells, IL-2 25 ng/mL, read-out: IL2-STAT5 Inh. IC50. The protocol:
Target modulation was based upon the ability of a compound to inhibit JAK1/3 phosphorylation of its substrate, STAT5, at Y694. Primary human peripheral blood mononuclear cells were plated in V-bottom 96 well plates at 200,000 cells/well in 120 μL medium (RPMI-1640 with 10% fetal bovine serum, 10 mM HEPES buffer, 12.2 mM 2-mercaptoethanol, and supplemented with glutamine/penicillin/streptomycin). Compounds were added as 15 μL of 10× working stock solutions in medium with 1% DMSO (or medium with 1% DMSO for controls) and placed in a 37° C. incubator with gentle shaking for 1 hour. Stimulation was carried out using recombinant human IL-2 (R&D Systems #202-IL-050) to activate JAK1/3. IL-2 stock solution was diluted in media to 250 ng/mL and was added rapidly to all compound containing and stimulation only wells at 15 μL/well (final concentration=25 ng/mL). Wells designated ‘unstimulated’ received 15 μL of media only. The plate was placed back in a 37° C. incubator with gentle shaking for 5 minutes. After stimulation, the plates were immediately sealed with a plate seal, and cells pelleted at 400× g for 5 minutes. Media was removed using a multichannel aspirator, and 75 μL of cold Tris lysis buffer (MSD #R60TX-3) plus 1× Protease Inhibitor Solution (MSD #R70AA-1), 1× Phosphatase Inhibitor I (MSD #R70AA-1), and 1× Phosphatase Inhibitor II (MSD #R70AA-1) was added per well. Cells were incubated at 4° C. with gentle shaking for at least 30 minutes to allow for complete lysis. The plates were removed from 4° C., and 25 μL of lysate from each well was added to the corresponding well on the MSD plate. Samples were analyzed by either an MSD multiplex kit for Phospho-STAT5a,b/Total-STAT5a,b (MSD #K15163D) or an MSD single-plex kit for Phospho-STAT5a,b (MSD #K150IGD). The protocols for the respective kits were followed, and the plates were read on the MSD SECTOR S 600.

Sequence of ITK (Q08881 whole entry): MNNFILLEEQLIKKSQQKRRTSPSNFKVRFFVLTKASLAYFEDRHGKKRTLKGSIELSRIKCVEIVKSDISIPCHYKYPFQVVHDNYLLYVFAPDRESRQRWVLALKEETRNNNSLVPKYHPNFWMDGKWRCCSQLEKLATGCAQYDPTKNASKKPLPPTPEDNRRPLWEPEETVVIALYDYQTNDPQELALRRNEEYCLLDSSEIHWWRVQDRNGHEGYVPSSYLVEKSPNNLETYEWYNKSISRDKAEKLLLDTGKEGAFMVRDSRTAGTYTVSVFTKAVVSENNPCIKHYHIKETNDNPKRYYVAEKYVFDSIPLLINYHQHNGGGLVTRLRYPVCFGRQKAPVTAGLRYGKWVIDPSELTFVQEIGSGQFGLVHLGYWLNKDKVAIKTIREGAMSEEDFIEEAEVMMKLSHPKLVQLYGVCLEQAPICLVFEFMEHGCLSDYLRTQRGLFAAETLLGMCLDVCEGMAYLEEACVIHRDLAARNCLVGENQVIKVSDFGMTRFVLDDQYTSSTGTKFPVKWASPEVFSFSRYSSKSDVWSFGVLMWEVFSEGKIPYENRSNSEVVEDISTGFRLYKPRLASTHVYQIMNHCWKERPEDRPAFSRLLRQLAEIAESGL
Sequence of JAK3 (P52333 781-1124): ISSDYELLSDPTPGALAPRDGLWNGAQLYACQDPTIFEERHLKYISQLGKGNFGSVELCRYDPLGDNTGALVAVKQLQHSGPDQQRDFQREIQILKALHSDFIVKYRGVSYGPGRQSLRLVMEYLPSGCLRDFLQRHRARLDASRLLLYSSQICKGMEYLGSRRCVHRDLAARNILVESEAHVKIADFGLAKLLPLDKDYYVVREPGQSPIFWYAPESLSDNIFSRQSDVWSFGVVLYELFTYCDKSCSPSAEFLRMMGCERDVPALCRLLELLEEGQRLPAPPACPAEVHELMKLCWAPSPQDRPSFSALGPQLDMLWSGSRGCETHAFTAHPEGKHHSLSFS

In the case of `C=CC(=O)N1CCC[C@@H](Nc2ncnc3[nH]cc([C@H]4C[C@@H]4COC)c23)C1` (single isomer, unassigned) [Example 26], the IC50 at ITK was not above 10 nM; on JAK3 it was not above 10 nM; in test [1] (Human Jurkat T cells), not above 100 nM; in test [2] it was 100 to 1000 nM.
`C=CC(=O)N1C[C@@H](Nc2ncnc3[nH]cc(CC4CC4)c23)CC[C@H]1CC` (single isomer, unassigned) [Example 39]: the IC50 at ITK is not above 10 nM; at JAK3, not above 10 nM; in test [1] (Homo sapiens, Jurkat), 100 to 1000 nM; in test [2] (Homo sapiens, PBMC) it was 100 to 1000 nM.
For the compound `C=CC(=O)N1C[C@H](Nc2ncnc3[nH]cc(CC4CC4)c23)CC[C@@H]1CC` (single isomer, unassigned) [Example 40], the concentration for half-maximal inhibition (IC50) is more than 100 nM on ITK; more than 100 nM on JAK3; more than 1000 nM in test [1] (Homo sapiens, Jurkat); more than 1000 nM in test [2] (Homo sapiens, PBMC).
`C=CC(=O)N1C[C@@H](Nc2ncnc3[nH]cc(CC4CC4)c23)CC[C@H]1C(C)C` (single isomer, unassigned) [Example 42]: the half-maximal inhibitory concentration (IC50) on ITK is not above 10 nM; at JAK3, not above 10 nM; in test [1] (Homo sapiens, Jurkat), 100 to 1000 nM; in test [2] (Homo sapiens, PBMC), 100 to 1000 nM.
For the compound `C=CC(=O)N1C[C@H](Nc2ncnc3[nH]cc(CC4CC4)c23)CC[C@@H]1C(C)C` (single isomer, unassigned) [Example 43], the IC50 at ITK is more than 100 nM; at JAK3, more than 100 nM; in test [1] (Homo sapiens, Jurkat), more than 1000 nM; in test [2] (Homo sapiens, PBMC), more than 1000 nM.
`C=CC(=O)N1C[C@H](Nc2ncnc3[nH]cc([C@@H]4C[C@H]4COC)c23)CC[C@@H]1C` (single isomer, unassigned) [Example 45]: the IC50 on ITK was not above 10 nM; on JAK3, not above 10 nM; in test [1] (Homo sapiens, Jurkat) it was not above 100 nM; in test [2] (Homo sapiens, PBMC), not above 100 nM.
As for `C=CC(=O)N1C[C@H](Nc2ncnc3[nH]cc([C@H]4C[C@@H]4COC)c23)CC[C@@H]1C` (single isomer, unassigned) [Example 46], the IC50 on ITK was not above 10 nM; on JAK3 it was not above 10 nM; in test [1] (Homo sapiens, Jurkat) it was 100 to 1000 nM; in test [2] (Homo sapiens, PBMC), 100 to 1000 nM.
As to `C=CC(=O)N1C[C@H](Nc2ncnc3[nH]cc([C@@H]4CC4(F)F)c23)CC[C@@H]1C` (single isomer, unassigned) [Example 48], the half-maximal inhibitory concentration (IC50) at ITK was not above 10 nM; on JAK3 it was not above 10 nM; in test [1] (Homo sapiens, Jurkat) it was not above 100 nM; in test [2] (Homo sapiens, PBMC) it was not above 100 nM.
In the case of `C=CC(=O)N1C[C@H](Nc2ncnc3[nH]cc([C@H]4CC4(F)F)c23)CC[C@@H]1C` (single isomer, unassigned) [Example 49], the IC50 at ITK was not above 10 nM; on JAK3, not above 10 nM; in test [1] (Homo sapiens, Jurkat), 100 to 1000 nM; in test [2] (Homo sapiens, PBMC), 100 to 1000 nM.
Take `C=CC(=O)N1C[C@H](Nc2ncnc3[nH]cc([C@H]4[C@H](C)C4(F)F)c23)CC[C@@H]1C` (single isomer, unassigned) [Example 51]: the IC50 at ITK is not above 10 nM; on JAK3, not above 10 nM; in test [1] (Homo sapiens, Jurkat), not above 100 nM; in test [2] (Homo sapiens, PBMC) it was not above 100 nM.
Turning to `C=CC(=O)N1C[C@H](Nc2ncnc3[nH]cc([C@@H]4[C@@H](C)C4(F)F)c23)CC[C@@H]1C` (single isomer, unassigned) [Example 52], the IC50 on ITK is not above 10 nM; on JAK3, not above 10 nM; in test [1] (Homo sapiens, Jurkat) it was 100 to 1000 nM; in test [2] (Homo sapiens, PBMC), 100 to 1000 nM.
In the case of `C=CC(=O)N1C[C@H](Nc2ncnc3[nH]cc([C@@H]4C(C)(C)C4(F)F)c23)CC[C@@H]1C` (single isomer, unassigned) [Example 54], the IC50 on ITK was not above 10 nM; at JAK3 it was not above 10 nM; in test [1] (Homo sapiens, Jurkat), 100 to 1000 nM; in test [2] (Homo sapiens, PBMC), 100 to 1000 nM.
Take `C=CC(=O)N1C[C@H](Nc2ncnc3[nH]cc([C@H]4[C@@H](C)C4(F)F)c23)CC[C@@H]1C` (single isomer, unassigned) [Example 55]: the IC50 on ITK is not above 10 nM; on JAK3 it was not above 10 nM; in test [1] (Homo sapiens, Jurkat), 100 to 1000 nM; in test [2] (Homo sapiens, PBMC), not above 100 nM.
Turning to `C=CC(=O)N1C[C@H](Nc2ncnc3[nH]cc([C@H]4[C@H](C)C4(F)F)c23)CC[C@@H]1C` (single isomer, unassigned) [Example 56], the IC50 is not above 10 nM on ITK, not above 10 nM on JAK3, 100 to 1000 nM in test [1] (Human Jurkat T cells) and 100 to 1000 nM in test [2].
